Values joined by “and” are separate entries in the source; they are usually repeats but may differ in a detail not shown here. Equal values may be shown once.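 Five concentrations, 48 hours, 96-well plates. GI50 marks 50% less growth. At the TGI there is no net growth.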
Key:
Assay in all cases: inhibition of tumour cell growth, NCI panel, 48 h
SF-268 CNS = tested on: SF-268 CNS
EKVX NSCLC = tested on: EKVX NSCLC
NCI-H522 lung = tested on: NCI-H522 lung
786-0 renal = tested on: 786-0 renal
IGROV1 ovarian = tested on: IGROV1 ovarian
MOLT-4 leukemia = tested on: MOLT-4 leukemia
SNB-75 CNS = tested on: SNB-75 CNS
OVCAR-5 ovarian = tested on: OVCAR-5 ovarian
NCI-H460 lung = tested on: NCI-H460 lung
SF-539 CNS = tested on: SF-539 CNS

For H-QIYKKYRTWYRKAWKVLGKV-NH2, the GI50 (SF-268 CNS) was 3.99 µM, the TGI (SF-268 CNS) was 30.5 µM and the GI50 (EKVX NSCLC) was 3.04 µM. The TGI (EKVX NSCLC) was 11.7 µM, the GI50 (NCI-H522 lung) was 25.8 µM and the TGI (NCI-H522 lung) was over 100 µM. The GI50 (786-0 renal) was 3.04 µM, the TGI (786-0 renal) was 16.8 µM and the GI50 (IGROV1 ovarian) was 3.06 µM. The TGI (IGROV1 ovarian) was 14.1 µM, the GI50 (MOLT-4 leukemia) was 11.7 µM and the TGI (MOLT-4 leukemia) was 79.5 µM. For the same molecule, the GI50 (SNB-75 CNS) was 6.06 µM, the TGI (SNB-75 CNS) was 22.5 µM and the GI50 (OVCAR-5 ovarian) was 8.79 µM. It also gave a TGI (OVCAR-5 ovarian) of 22.5 µM, a GI50 (NCI-H460 lung) of 3.24 µM and a TGI (NCI-H460 lung) of 12.4 µM. The GI50 (SF-539 CNS) was 2.21 µM and the TGI (SF-539 CNS) was 4.98 µM.

`CCN(CC)Cc1cc(Nc2c3ccccc3nc3cc(Cl)ccc23)ccc1O` was tested, and the GI50 (SF-268 CNS) was 1.63 µM, the TGI (SF-268 CNS) was 3.13 µM and the GI50 (EKVX NSCLC) was 2.26 µM. For the same molecule, the TGI (EKVX NSCLC) was 5.99 µM, the GI50 (NCI-H522 lung) was 1.12 µM and the TGI (NCI-H522 lung) was 2.56 µM. It also gave a GI50 (786-0 renal) of 1.21 µM, a TGI (786-0 renal) of 2.46 µM and a GI50 (IGROV1 ovarian) of 1.65 µM. For the same molecule, the TGI (IGROV1 ovarian) was 3.55 µM, the GI50 (MOLT-4 leukemia) was 2.01 µM and the TGI (MOLT-4 leukemia) was 53.5 µM. It also gave a GI50 (SNB-75 CNS) of 1.6 µM, a TGI (SNB-75 CNS) of 2.97 µM and a GI50 (OVCAR-5 ovarian) of 2.42 µM. It also gave a TGI (OVCAR-5 ovarian) of 6.66 µM, a GI50 (NCI-H460 lung) of 1.62 µM and a TGI (NCI-H460 lung) of 4.8 µM. For the same molecule, the GI50 (SF-539 CNS) was 2.19 µM and the TGI (SF-539 CNS) was 4.58 µM.

`C/C(=N\NS(=O)(=O)c1ccc([N+](=O)[O-])cc1)c1ccc[n+]([O-])n1` was tested, and the TGI (SF-268 CNS) was 7.65 µM, the TGI (EKVX NSCLC) was 20.9 µM and the TGI (NCI-H522 lung) was 4.51 µM. For the same molecule, the TGI (786-0 renal) was 15.6 µM, the TGI (IGROV1 ovarian) was 20.9 µM and the TGI (MOLT-4 leukemia) was 11.5 µM. The TGI (SNB-75 CNS) was 5.36 µM, the TGI (OVCAR-5 ovarian) was 6.1 µM and the TGI (NCI-H460 lung) was 2.75 µM. It also gave a TGI (SF-539 CNS) of 4.94 µM.

With `O=C(/C=C/c1ccc([N+](=O)[O-])cc1)c1cccc(Nc2nc(Nc3ccccc3)nc(Nc3ccccc3)n2)c1` the GI50 (SF-268 CNS) was 17.6 µM, the TGI (SF-268 CNS) was over 100 µM and the GI50 (EKVX NSCLC) was 22.3 µM. For the same molecule, the TGI (EKVX NSCLC) was over 100 µM, the GI50 (NCI-H522 lung) was 12.4 µM and the TGI (NCI-H522 lung) was over 100 µM. It also gave a GI50 (786-0 renal) of 13 µM, a TGI (786-0 renal) of 43.1 µM and a GI50 (IGROV1 ovarian) of 0.671 µM. For the same molecule, the TGI (IGROV1 ovarian) was 63.1 µM, the GI50 (MOLT-4 leukemia) was 2.6 µM and the TGI (MOLT-4 leukemia) was 20 µM. It also gave a GI50 (SNB-75 CNS) of 4.52 µM, a TGI (SNB-75 CNS) of 94.8 µM and a GI50 (OVCAR-5 ovarian) of 51 µM. The TGI (OVCAR-5 ovarian) was over 100 µM, the GI50 (NCI-H460 lung) was 9.63 µM and the TGI (NCI-H460 lung) was 38 µM. For the same molecule, the GI50 (SF-539 CNS) was 12.7 µM and the TGI (SF-539 CNS) was 35.5 µM.

Molecule `COC(=O)/C(=N\Nc1nnc(C)n1N)C(C#N)c1ccccc1` (centres undefined) has a TGI (SF-268 CNS) of over 100 µM, a TGI (EKVX NSCLC) of over 100 µM and a TGI (NCI-H522 lung) of over 100 µM. For the same molecule, the TGI (786-0 renal) was over 55.1 µM, the TGI (IGROV1 ovarian) was over 100 µM and the TGI (MOLT-4 leukemia) was over 100 µM. It also gave a TGI (SNB-75 CNS) of over 100 µM, a TGI (OVCAR-5 ovarian) of over 100 µM and a TGI (NCI-H460 lung) of over 100 µM. For the same molecule, the TGI (SF-539 CNS) was over 100 µM.

`C#CCOCn1cnc2ncnc(N)c21` showed a TGI (SF-268 CNS) of over 100 µM, a TGI (EKVX NSCLC) of over 100 µM and a TGI (NCI-H522 lung) of over 100 µM. For the same molecule, the TGI (786-0 renal) was over 100 µM, the TGI (IGROV1 ovarian) was over 100 µM and the TGI (MOLT-4 leukemia) was over 100 µM. The TGI (SNB-75 CNS) was over 100 µM, the TGI (OVCAR-5 ovarian) was over 100 µM and the TGI (NCI-H460 lung) was over 100 µM. For the same molecule, the TGI (SF-539 CNS) was over 100 µM.

For `O=C(NOCCO)c1cc(CN2OCCCC2=O)c(F)c(F)c1Nc1ccc(I)cc1F`, the GI50 (SF-268 CNS) was 22.6 µM and > 10 µM, the TGI (SF-268 CNS) was over 100 µM and the GI50 (EKVX NSCLC) was 0.0599 µM and 0.0806 µM. For the same molecule, the TGI (EKVX NSCLC) was over 74.5 µM, the GI50 (NCI-H522 lung) was 18.3 µM and > 7.9 µM and the TGI (NCI-H522 lung) was over 65.4 µM. The GI50 (786-0 renal) was 15.7 µM and > 10 µM, the TGI (786-0 renal) was over 92.2 µM and the GI50 (IGROV1 ovarian) was 0.101 µM and 0.0246 µM. For the same molecule, the TGI (IGROV1 ovarian) was over 52.5 µM, the GI50 (MOLT-4 leukemia) was 38.2 µM and > 10 µM and the TGI (MOLT-4 leukemia) was over 100 µM. The GI50 (SNB-75 CNS) was 16.4 µM and > 3.83 µM, the TGI (SNB-75 CNS) was over 100 µM and the GI50 (OVCAR-5 ovarian) was < 0.01 µM and 0.00485 µM. The TGI (OVCAR-5 ovarian) was over 100 µM, the GI50 (NCI-H460 lung) was 12.9 µM and > 10 µM and the TGI (NCI-H460 lung) was over 100 µM. For the same molecule, the GI50 (SF-539 CNS) was 8.61 µM and > 10 µM and the TGI (SF-539 CNS) was 66 µM and > 10 µM.

`Oc1ccc(Cl)cc1/C=N\NC(=S)N/N=C/c1cc(Cl)ccc1O` gave a GI50 (SF-268 CNS) of 1.72 µM, a TGI (SF-268 CNS) of over 100 µM and a GI50 (EKVX NSCLC) of 3.23 µM. It also gave a TGI (EKVX NSCLC) of over 100 µM, a GI50 (NCI-H522 lung) of 1.45 µM and a TGI (NCI-H522 lung) of 5.15 µM. It also gave a GI50 (786-0 renal) of 1.43 µM, a TGI (786-0 renal) of 4.52 µM and a GI50 (IGROV1 ovarian) of 2.52 µM. For the same molecule, the TGI (IGROV1 ovarian) was over 100 µM, the GI50 (MOLT-4 leukemia) was 2.23 µM and the TGI (MOLT-4 leukemia) was 7.62 µM. For the same molecule, the GI50 (SNB-75 CNS) was 6.35 µM, the TGI (SNB-75 CNS) was over 100 µM and the GI50 (OVCAR-5 ovarian) was 5.04 µM. The TGI (OVCAR-5 ovarian) was over 100 µM, the GI50 (NCI-H460 lung) was 2.58 µM and the TGI (NCI-H460 lung) was 13.3 µM. For the same molecule, the GI50 (SF-539 CNS) was 2.8 µM and the TGI (SF-539 CNS) was 90.8 µM.

With `CC(/C=N/N=C(N)N)=N\N=C(N)N` the GI50 (SF-268 CNS) was 23.1 µM, the TGI (SF-268 CNS) was 92.4 µM and the GI50 (EKVX NSCLC) was 61.5 µM. It also gave a TGI (EKVX NSCLC) of 499 µM, a GI50 (NCI-H522 lung) of 25.1 µM and a TGI (NCI-H522 lung) of 248 µM. For the same molecule, the GI50 (786-0 renal) was 6.12 µM and 1.67 µM, the TGI (786-0 renal) was > 83.6 µM and 19.7 µM and the TGI (IGROV1 ovarian) was 1640 µM. For the same molecule, the GI50 (MOLT-4 leukemia) was 28.2 µM, the TGI (MOLT-4 leukemia) was 463 µM and the GI50 (SNB-75 CNS) was 28.3 µM. The TGI (SNB-75 CNS) was 187 µM, the GI50 (OVCAR-5 ovarian) was 41 µM and 19.4 µM and the TGI (OVCAR-5 ovarian) was 347 µM. For the same molecule, the GI50 (NCI-H460 lung) was 26.3 µM, the TGI (NCI-H460 lung) was 201 µM and the GI50 (SF-539 CNS) was 21.8 µM. For the same molecule, the TGI (SF-539 CNS) was 103 µM.

`CCCN1CCC=C(c2ccc(Nc3nc(Nc4ccccc4C(N)=O)c4cc[nH]c4n3)c(C)c2)C1` gave a GI50 (SF-268 CNS) of over 25 µM, a TGI (SF-268 CNS) of over 25 µM and a GI50 (EKVX NSCLC) of over 17.8 µM. The TGI (EKVX NSCLC) was over 25 µM, the GI50 (NCI-H522 lung) was 8.66 µM and the TGI (NCI-H522 lung) was over 25 µM. The GI50 (786-0 renal) was 17.3 µM, the TGI (786-0 renal) was over 25 µM and the GI50 (IGROV1 ovarian) was 8.29 µM. The TGI (IGROV1 ovarian) was over 25 µM, the GI50 (MOLT-4 leukemia) was 7.79 µM and the TGI (MOLT-4 leukemia) was over 21 µM. It also gave a GI50 (SNB-75 CNS) of over 25 µM, a TGI (SNB-75 CNS) of over 25 µM and a GI50 (OVCAR-5 ovarian) of 4.01 µM. It also gave a TGI (OVCAR-5 ovarian) of over 25 µM, a GI50 (NCI-H460 lung) of 2.46 µM and a TGI (NCI-H460 lung) of over 25 µM. The GI50 (SF-539 CNS) was 17.9 µM and the TGI (SF-539 CNS) was over 25 µM.

`N#C/C(=C\c1ccc2[nH]ccc2c1)C(=O)c1ccc(O)c(O)c1` gave a TGI (SF-268 CNS) of over 100 µM, a TGI (EKVX NSCLC) of over 100 µM and a TGI (NCI-H522 lung) of over 100 µM. For the same molecule, the TGI (786-0 renal) was over 100 µM, the TGI (IGROV1 ovarian) was over 100 µM and the TGI (MOLT-4 leukemia) was over 100 µM. For the same molecule, the TGI (SNB-75 CNS) was over 100 µM, the TGI (OVCAR-5 ovarian) was over 100 µM and the TGI (NCI-H460 lung) was over 100 µM. It also gave a TGI (SF-539 CNS) of over 100 µM.

`COc1ccc(-c2nc(C(=O)c3ccccc3)n(CC(=O)c3ccc(Cl)cc3)c2-c2ccc(OC)cc2)cc1` was tested, and the GI50 (SF-268 CNS) was over 100 µM, the TGI (SF-268 CNS) was over 100 µM and the GI50 (EKVX NSCLC) was over 100 µM. For the same molecule, the TGI (EKVX NSCLC) was over 100 µM, the GI50 (NCI-H522 lung) was over 100 µM and the TGI (NCI-H522 lung) was over 100 µM. The GI50 (786-0 renal) was over 100 µM, the TGI (786-0 renal) was over 100 µM and the GI50 (IGROV1 ovarian) was over 100 µM. For the same molecule, the TGI (IGROV1 ovarian) was over 100 µM, the GI50 (MOLT-4 leukemia) was over 100 µM and the TGI (MOLT-4 leukemia) was over 100 µM. The GI50 (SNB-75 CNS) was over 100 µM, the TGI (SNB-75 CNS) was over 100 µM and the GI50 (OVCAR-5 ovarian) was over 100 µM. The TGI (OVCAR-5 ovarian) was over 100 µM, the GI50 (NCI-H460 lung) was over 100 µM and the TGI (NCI-H460 lung) was over 100 µM. It also gave a GI50 (SF-539 CNS) of over 100 µM and a TGI (SF-539 CNS) of over 100 µM.
